Data taken from patent publication US5576419A, “Mild solid-phase synthesis of aligned branched triple-helical peptides” (Regents of the University of Minnesota, priority 1995, dated 1996).

Experiments:
[1] = system: K1735M4 tumor cell; test: Melanoma cell spreading on peptide-coated plates; format: cell-based, mouse; conditions: for cell areas averaged (cell spreading): [THP-2]=0.9 μM, [SSP]=2.1 μM, [GPP*]=1.4 μM
Protocol: (§1) K1735M4 tumor cell adhesion and spreading assays were as described previously [M. K. Chelberg et al., J. Cell Biol. 111, 261 (1990)] with minor alterations. Peptides were dissolved in PBS and adsorbed directly onto 96-well polystyrene Immulon 1 plates (Dynatech Laboratories Inc., Chantlily, Va.) overnight at 37° C. Nonspecific binding sites were blocked with 5 mg/mL bovine serum albumin in adhesion media [Dulbecco's modified Eagle's medium containing 20 mM 4-(2-hydroxyethyl)-1-piperazineethanesulfonic acid] for 2 h at 37° C. Tumor cells were released from tissue culture flasks with 37° C. PBS containing 10 mM EDTA and washed several times with adhesion media. Cells were labeled overnight with 1 μCi/mL [^3 H]thymidine (New England Nuclear, Boston, Mass.) for adhesion assays. Cells were added to the plate wells at a density of 50,000 cells/mL in a total volume of 100 μL and adhered for 1 h at 37° C. For adhesion assays wells were washed several times with adhesion media and remaining cells lysed and radioactivity determined as described [M. K. Chelberg et al., J. Cell Biol. 111, 261 (1990)]. For spreading assays wells were fixed and stained using DiffQuik reagents (Baxter) and photographed with a Nikon MF-15 camera mounted on a Nikon Diaphot inverted microscope at 200× magnification. Cell spreading was quantitated by an Optomax System IV image analyzer equipped with a Hitachi Monitor. The efficiency of peptide adsorption to the Immulon plates was determined as described [M. K. Chelberg et al., J. Cell Biol. 111, 261 (1990)] using ^3 H- or ^125 I-labeled peptide.

[2] = CD thermal transition (triple-helix melting), molar ellipticity at 225 nm; format: physicochemical; conditions: [θ] at 225 nm; for Tm (triple-helical melt): 15-85 °C, 1-5% aqueous HOAc, pH 2.4
Protocol: Edman degradation sequence analysis was performed on an Applied Biosystems 477A Protein Sequencer/120A Analyzer for both solid-phase and "embedded" (non-covalent) sequencing as described by C. G. Fields et al., Anal. Biochem. 203, 245 (1992) and C. G. Fields et al., Peptide Res. 6, 39 (1993), which are incorporated herein by reference. Fulvene-piperidine concentrations (301 nm) and scanning UV spectra (200-320 nm) were determined with a BECKMAN DU-70 Spectrophotometer. Amino acid analyses were performed on a BECKMAN 6300 Analyzer with a sulfated polystyrene cation-exchange column (0.4 cm×25 cm). Peptides were hydrolyzed with 6N aqueous HCl at 110° C. for 18-48 h. Electrospray mass spectrometric (ES-MS) methods have been described by C. G. Fields et al., Peptide Res. 6, 39 (1993), which is incorporated herein by reference. Fast atom bombardment (FAB) MS was performed on a VG 7070E-HF with a glycerol matrix and laser desorption time-of-flight (LD-TOF) MS with both a breadboard and prototype matrix-assisted TOF mass spectrometer from Millipore Corporation (Milford, Mass.) with a sinapinic acid matrix [saturated solution of 10 mg/mL sinapinic acid dissolved in acetonitrile-H2 O (1:3) containing 0.1% TFA]. THPs were ^3 H-labeled by reductive methylation [N. Jentoft et al., J. Biol. Chem. 254, 4359 (1979)] with NaCNBH3 and [^3 H]formaldehyde, desalted over a Sephadex G-50 column (50×1.5 cm) in PBS, pH 7.4, and analyzed by size-exclusion chromatography (SEC). CD spectroscopy was performed on a Jasco 710 spectropolarimeter using a 100 or 200 μL, 0.1 mm cell. The THP concentrations (determined spectrophotometrically) in 1-5% aqueous HOAc, pH 2.4 were [THP-1]=0.16 mM, [THP-2]=0.084 mM, [THP-3]=0.068 mM, and [THP-4]=0.015 mM. Spectra were recorded by accumulating 5 scans at 0.5 nm intervals (response of 1 sec). Thermal transitions were examined by measuring the molar ellipticity ([θ]) at 225 nm from 15°-85° C.

[3] = system: K1735M4 tumor cell; test: Melanoma cell adhesion to peptide-coated Immulon plates; format: cell-based, mouse; conditions: for EC50: coated peptide 0.1-300 μM, cells adhered 1 h at 37 °C, one mole = three peptide chains, read-out: Half maximal melanoma cell adhesion (peptide concentration)
Protocol: as §1

Substance	cell areas averaged (cell spreading) [1] [mm^2 /μM peptide]	Tm (triple-helical melt) [2] [°C]	EC50 [3] [µM]	Cell spreading, comparison in words ([1]; THP-2 versus SSP and GPP*)	midpoint of low temperature transition (aggregation) ([2]; 5% aqueous HOAc, pH 2.4, shown by SEC to be aggregation) [°C]	increase in melanoma cell adhesion activity compared with the α1(IV) 1263-1277 sequence alone ([3]; THP-2 versus SSP) [fold]
(Gly-Pro-Hyp)8 [THP-3]	0.017	42.5	> 100			
(Gly-Pro-Hyp)3 -Gly-Val-Lys-Gly-Asp-Lys-Gly-Asn-Pro-Gly-Trp-Pro-Gly-Ala-Pro [THP-4]		35.0				
(Gly-Pro-Hyp)8 -Gly-Glu-Phe-Tyr-Phe-Asp-Leu-Arg-Leu-Lys-Gly-Asp-Lys [THP-1]		53.0				
(Gly-Pro-Hyp)8 -Gly-Val-Lys-Gly-Asp-Lys-Gly-Asn-Pro-Gly-Trp-Pro-Gly-Ala-Pro [THP-2]	0.048	58.5	1.12	more extensive	23.5	100
